Molecular target: T1, RORc ligand binding domain (Homo sapiens, UniProt P51449)
T1 construct: host or cells: E. coli
T1 sequence (P51449 269-508 limits assumed): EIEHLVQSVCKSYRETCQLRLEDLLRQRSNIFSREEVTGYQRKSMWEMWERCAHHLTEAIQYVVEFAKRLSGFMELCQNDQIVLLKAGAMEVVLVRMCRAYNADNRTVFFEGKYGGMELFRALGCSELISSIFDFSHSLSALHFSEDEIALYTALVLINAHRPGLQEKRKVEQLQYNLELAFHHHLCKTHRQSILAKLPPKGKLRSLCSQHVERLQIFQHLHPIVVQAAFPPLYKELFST
Experiment: In vitro RORc ligand binding assay (25-[3H]hydroxycholesterol displacement, filter binding)
Conditions: 6 nM 25-[3H]hydroxycholesterol, 0.6 ug/mL RORc receptor, 3 h at 25° C.
Outline: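 Compounds in 5% DMSO, either dose-response or screened at 1 and 10 uM, competed with 6 nM 25-[3H]hydroxycholesterol for 0.6 ug/mL RORc over 3 h at 25° C (HEPES pH 7.4, NaCl, MgCl2, DTT, BSA buffer). Bound tracer was filter-harvested and counted; nonspecific binding came from 1 uM 25-hydroxycholesterol.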

IC50	Structure (SMILES)
2840 nM	COC[C@@H]1CCCN1C(=O)[C@]12CC[C@H](c3cc(-c4c(F)cccc4F)nnc31)C2(C)C [Example 246, ((5S,8S)-3-(2,6-difluorophenyl)-9,9-dimethyl-5,6,7,8-tetrahydro-5,8-methanocinnolin-8-yl)((S)-2-(methoxymethyl)pyrrolidin-1-yl)methanone]
1580 nM	CC1(C)[C@@H]2CC[C@@]1(N1CCNC1=O)c1nnc(-c3c(F)cccc3F)cc12 [Example 252, 1-((5S,8S)-3-(2,6-difluorophenyl)-9,9-dimethyl-5,6,7,8-tetrahydro-5,8-methanocinnolin-8-yl)imidazolidin-2-one]
438 nM	CC1(C)[C@H]2CC[C@]1(N1CCOC1=O)c1nnc(-c3c(F)cccc3F)cc12 [Example 257, 3-((5R,8R)-3-(2,6-difluorophenyl)-9,9-dimethyl-5,6,7,8-tetrahydro-5,8-methanocinnolin-8-yl)oxazolidin-2-one]
281 nM	CC(C)OC[C@]12CC[C@H](c3cc(-c4ccccc4F)nnc31)C2(C)C [Example 38, (5S,8S)-3-(2-fluorophenyl)-9,9-dimethyl-8-[(propan-2-yloxy)methyl]-5,6,7,8-tetrahydro-5,8-methanocinnoline]
1480 nM	CN(C(=O)OCCO)[C@@]12CC[C@@H](c3cc(-c4c(F)cccc4F)nnc31)C2(C)C [Example 299, 2-hydroxyethyl ((5R,8R)-3-(2,6-difluorophenyl)-9,9-dimethyl-5,6,7,8-tetrahydro-5,8-methanocinnolin-8-yl)(methyl)carbamate]
3080 nM	CC(C)(C#N)NC(=O)[C@@]12CC[C@@H](c3cc(-c4ccccc4F)nnc31)C2(C)C [Example 174, (5R,8R)-N-(2-cyanopropan-2-yl)-3-(2-fluorophenyl)-9,9-dimethyl-5,6,7,8-tetrahydro-5,8-methanocinnoline-8-carboxamide]
683 nM	CC(=O)O[C@H]1C[C@@H]2c3cc(-c4ccccc4F)nnc3[C@@]1(C)C2(C)C [Example 19, (5S,7S,8R)-3-(2-fluorophenyl)-8,9,9-trimethyl-5,6,7,8-tetrahydro-5,8-methanocinnolin-7-yl acetate]
43 nM	CC1(C)[C@H]2CC[C@]1(c1ccn[nH]1)c1nnc(-c3c(F)cccc3F)cc12 [Example 113, (5R,8S)-3-(2,6-difluorophenyl)-9,9-dimethyl-8-(1H-pyrazol-5-yl)-5,6,7,8-tetrahydro-5,8-methanocinnoline]
405 nM	CC1(C)[C@@H]2CC[C@@]1(C(=O)N1CC[C@@H](C#N)C1)c1nnc(-c3c(F)cccc3F)cc12 [Example 236, (R)-1-((5S,8S)-3-(2,6-difluorophenyl)-9,9-dimethyl-5,6,7,8-tetrahydro-5,8-methanocinnoline-8-carbonyl)pyrrolidine-3-carbonitrile]
363 nM	CC1(C)[C@H]2CC[C@]1(CN(CCC#N)C(N)=O)c1nnc(-c3c(F)cccc3F)cc12 [Example 310, 1-(2-cyanoethyl)-1-(((5R,8S)-3-(2,6-difluorophenyl)-9,9-dimethyl-5,6,7,8-tetrahydro-5,8-methanocinnolin-8-yl)methyl)urea]
339 nM	COCCn1nccc1[C@@]12CC[C@@H](c3cc(-c4c(F)cccc4F)nnc31)C2(C)C [Example 267, (5R,8S)-3-(2,6-difluorophenyl)-8-(1-(2-methoxyethyl)-1H-pyrazol-5-yl)-9,9-dimethyl-5,6,7,8-tetrahydro-5,8-methanocinnoline]
811 nM	CC(C)c1nnc([C@@]23CC[C@@H](c4cc(-c5c(F)cccc5F)nnc42)C3(C)C)o1 [Example 125, (5R,8R)-3-(2,6-difluorophenyl)-9,9-dimethyl-8-(5-isopropyl-1,3,4-oxadiazol-2-yl)-5,6,7,8-tetrahydro-5,8-methanocinnoline]
139 nM	Cc1ncoc1[C@]12CC[C@H](c3cc(-c4c(F)cccc4F)nnc31)C2(C)C [Example 227, 5-((5S,8S)-3-(2,6-difluorophenyl)-9,9-dimethyl-5,6,7,8-tetrahydro-5,8-methanocinnolin-8-yl)-4-methyloxazole]

Reference: patent publication US9981916B2 (Genentech, Inc., priority 2013, dated 2018)
